Patent US20130096092A1, “THIOETHER PRODRUG COMPOSITIONS AS ANTI-HIV AND ANTI-RETROVIRAL AGENTS” (Health and Human Services, priority 2010, published 2013)
Like-named read-outs stand apart in the source and are kept apart here.

Legend:
[1] = system: HIVBaL; test: XTT cytoprotection assay, monocyte-macrophages infected with HIVBaL; type: cell-based, HIV; settings: for EC50: monocyte-macrophages infected with HIVBaL, XTT
Method: (§1) The HIV cytoprotection assay has been previously described in Weislow, O, S. et al., J. Natl. Cancer Inst. 81, 577-86 (1989); Rice, W. G. et al., Antimicrob. Agents Chemother. 41, 419-26 (1997), and Rice, W. G. et al., Proc. Natl. Acad. Sci. USA 90, 9721-4 (1993). CEM-SS cells infected with HIV-1IIIB or monocyte-macrophages infected with HIVBaL were incubated with the compound for 6 days and antiviral activity determined by measurement of cell survival (cytoprotection) using XTT (2,3-bis(2-methoxy-4-nitro-5-sulfophenyl)-5-[(phenylamino)carbonyl]-2H-tetrazolium hydroxide) dye reduction. AZT was used as a positive control for all assays with each assay performed in duplicate with triplicate determinations per condition. Compound toxicity was measured the same way in uninfected CEM-SS cells. Effective antiviral concentrations providing 50% cytoprotection (EC50) and cellular growth inhibitory concentrations causing 50% cytotoxicity (IC50) were calculated.
Three compounds were assayed for antiviral activity using the XTT cytoprotection assay in CEM-SS cells infected with HIV-1IIIB and in monocyte-macrophages infected with HIVBaL and assayed for virucidal activity. The compounds are compound 7a (invention), 8 (comparative), and 7f (comparative). The structure of compound 8 is as follows:
(§2) Four compounds along with a positive control were assayed for antiviral activity using the XTT cytoprotection assay as described in Example 4. The cells used were CEM-SS cells infected with HIV-1RF, monocyte-macrophages infected with HIVBaL, and peripheral blood mononuclear cells (PBMC) infected with HIV-1HT/92/599. The compounds are compound 8 (comparative), 7a (invention), 10 (invention), 11 (invention), and 12 (invention).

[2] = system: HIV-1RF; test: XTT cytoprotection assay, CEM-SS cells infected with HIV-1RF; type: cell-based; settings: Human immunodeficiency virus 1, Table 2, read-out: EC50 (50% cytoprotection), CEM-SS cells
Method: as §1, §2

[3] = Human plasma stability (RP-HPLC); type: in vitro ADME; settings: 20 μM in 50% human plasma in PBS, 37° C., 1 hour; FIG. 7
Method: Compound 8 (comparative), compound 7a (invention), compound 10 (invention), compound 11 (invention), and compound 12 (invention) were dissolved in DMSO and diluted into 50% human plasma in PBS buffer at a final concentration of 20 μM. The samples were incubated at 37° C. for 1 hour and the amount of intact compound measured using RP-HPLC. The results are illustrated in FIG. 7.

[4] = system: HIV-1IIIB; test: Cell-free virus inactivation (virucidal) assay; type: cell-based; settings: for EC50: Human immunodeficiency virus 1, Table 1, HIV-1IIIB incubated with compound 2 h at 37° C., then added to CEM-SS cells
Method: Cell-free virus inactivation assays were performed as previously described in Song, Y. et al., Bioorg. Med. Chem. 10, 1263-73 (2002). Briefly, HIV-1IIIB was incubated with three concentrations of each compound for 2 h at 37° C. and then pelleted at 4° C. for 90 minutes at 18,000×g. Following several washes with DPBS to remove unbound compound, the virus was resuspended in cell culture media and added to CEM-SS cells at a titer to yield 85-90% cell killing at day 6 post-infection.

[5] = system: HIV-1IIIB; test: XTT cytoprotection assay, CEM-SS cells infected with HIV-1IIIB; type: cell-based; settings: Human immunodeficiency virus 1, 144 h, Table 1, 6 days, read-out: EC50 (50% cytoprotection), CEM-SS cells
Method: as §1
Three compounds were assayed for antiviral activity using the XTT cytoprotection assay in CEM-SS cells infected with HIV-1IIIB and in monocyte-macrophages infected with HIVBaL and assayed for virucidal activity. The compounds are compound 7a (invention), 8 (comparative), and 7f (comparative).

[6] = Stability in vaginal fluid simulant (RP-HPLC); type: physicochemical; settings: 400 μM; 25° C., 30 days; FIG. 6; compared with compound 8
Method: The final concentration of the compounds was 400 μM. The samples were incubated at 25° C. over the course of 30 days and the amount of intact compound was measured over time using RP-HPLC. […] The results are illustrated in FIG. 6.

[7] = Compound toxicity in PBMC; type: cell-based; settings: human, peripheral blood mononuclear cells (PBMC); Table 2; read-out: TC50, PBMC
Method: as §1, §2

[8] = pH stability in buffers (RP-HPLC); type: physicochemical; settings: 250 μM; pH 5.0, 7.0, 9.0 buffers; 25° C., 30 days; FIG. 5
Method: This example illustrates the pH stability of compound 7a. Compound 7a was dissolved in DMSO and diluted into the 100 mM sodium acetate buffer at pH 5.0 (shown in FIG. 5 as diamonds), 100 mM sodium phosphate buffer at pH 7.0 (shown in FIG. 5 as circles), and 100 mM Tris-HCl buffer at pH 9.0 (shown in FIG. 5 as squares) at a final compound concentration of 250 μM. The samples were incubated at 25° C. over the course of 30 days and the amount of intact compound was measured over time using RP-HPLC. The results are illustrated in FIG. 5.

[9] = system: HIV-1HT/92/599; test: XTT cytoprotection assay, PBMC infected with HIV-1HT/92/599; type: cell-based; settings: Human immunodeficiency virus 1; Table 2; PBMC infected with HIV-1HT/92/599, XTT; read-out: EC50 (50% cytoprotection), PBMC
Method: as §1, §2

[10] = system: CEM-SS cells; test: Compound toxicity by XTT in uninfected CEM-SS cells; type: cell-based; settings: Table 2; read-out: TC50, CEM-SS cells
Method: as §1

[11] = as above; type: cell-based; settings: human; Table 1; uninfected CEM-SS cells, XTT; read-out: TC50, CEM-SS cells
Method: as §1

[12] = system: monocyte-macrophages; test: Compound toxicity in monocyte-macrophages; type: cell-based; settings: Table 2; read-out: TC50, Monocyte/Macrophage
[13] = Compound toxicity in monocyte-macrophages; type: cell-based; settings: human, monocyte-macrophages; Table 1; read-out: TC50, Monocytes-macrophages
[14] = Human immunodeficiency virus 1, 144 h, Table 1, 6 days, read-out: EC50 (50% cytoprotection), Monocytes-macrophages
[15] = Human immunodeficiency virus 1, Table 2, read-out: EC50 (50% cytoprotection), Monocyte/Macrophage

EC50 [1, 14] [µM] | EC50 [1, 15] [µM] | EC50 [2] [µM] | stability in human plasma, intact compound [3] | EC50 [5] [µM] | stability in vaginal fluid simulant, intact compound over time [6] | pH stability, intact compound over time [8] | EC50 [9] [µM] | SMILES | EC50 [4] [µM] | CC50 at 6 days [7] [µM] | CC50 [10] [µM] | CC50 at 6 days [11] [µM] | CC50 [12] [µM] | CC50 at 6 days [13] [µM] | activity in cytoprotection assay against infected monocytes-macrophages ([1]; as compared to compound 7a) | activity in the antiviral assay against HIV-1IIIB ([4]; virucidal assay, as compared to compound 7a)
0.6 | 0.62 | 0.2 | did not exhibit stability | 0.2 | significantly more stable | most stable at acidic pH | 4.06 | CC(C)C(=O)Oc1ccc(CSc2ccccc2C(=O)NCCC(N)=O)cc1 [Compound 7a, N-{2-[4-(isopropylcarbonyloxy)benzylthio]benzoyl}-β-alaninamide] | 9.8 | > 100 | > 100 | > 100 | > 100 | > 100 |  | 
> 100 |  |  |  | 34.9 |  |  |  | NC(=O)CCNC(=O)c1ccccc1SCc1ccccc1 [Compound 7f] | > 100 |  |  | > 100 |  | > 100 | inactive | inactive
2 | 1.97 | 0.6 |  | 0.6 |  |  | 5.74 | CC(=O)Sc1ccccc1C(=O)NCCC(N)=O [Compound 8] | 0.9 | > 100 | > 100 | > 100 | > 100 | > 100 |  | 
